One may read the IC50 as the midpoint of a concentration-inhibition curve.

The text below walks through data of patent publication US10961236B2, “(S)-2-(1-cyclopropylethyl)-5-(4-methyl-2-((6-(2-oxopyrrolidin-1-yl)pyridin-2-yl)amino) thiazol-5-yl)-7-(methylsulfonyl)isoindolin-1-one as a phosphatidylinositol 3-kinase inhibitor” (AstraZeneca AB, priority 2016, dated 2021).

Holding throughout (format): biochemical
Assay [1] deals with recombinant human PI3Kβ (6-His(p110-p85α)) (Homo sapiens (Human), UniProt P42338). In words: Enzymatic activity assay for recombinant human PI3Kβ (ADP-Glo). To be noted: 1.2 nM PI3Kβ, 20 μM ATP, 80 μM DiC8-PIP2, ADP-Glo. Here is the method: (§1) Enzymatic Activity Assay for Recombinant Human PI3K α, β, δ and γ.
(§2) The activity of recombinant human PI3Kγ ((aa144-1102)-6His) and PI3Kα, β, δ (6-His(p110-p85α)) was determined by measuring the ADP level after phosphorylation of DiC8-PIP2 using a commercially available ADP-Glo™ kit from Promega. The assay was carried out in white low volume 384 well plates in a final volume of 14 μl at R.T. The assay conditions contained the following: 50 mM Tris buffer pH 7.4, 2.1 mM DTT, 3 mM MgCl2, 0.05% CHAPS, 20 μM ATP, 80 μM DiC8-PIP2 and 1.2 nM PI3Kα, β, γ or 0.6 nM PI3Kδ. Potential inhibitors were made up in DMSO and then diluted in the assay to give a final concentration of not exceeding 1% (v/v) DMSO. […] Routinely, inhibitors were pre-incubated with 3 μl of enzyme for 15 min prior to the addition of 2 μl substrate mixture for a further 60 min enzyme reaction. The phosphorylation was stopped with the addition of 3 μl ADP-Glo™ reagent (stop solution) followed by a 40 min incubation. Prior to detection 6 μl of ADP-Glo™ Kinase Detection Reagent was added and the plates were read in a micro plate reader using a Luminescence filter. All additions were followed by a short centrifugation step.
(In general: In ADP-Glo the light output rises with the ADP produced.)

In assay [2] the target is recombinant human PI3Kγ ((aa144-1102)-6His) (Homo sapiens (Human), UniProt P48736). In words: Enzymatic activity assay for recombinant human PI3Kγ (ADP-Glo). To be noted: 1.2 nM PI3Kγ, 20 μM ATP, 80 μM DiC8-PIP2, ADP-Glo. Here is the method:
as §1
as §2, with “PI3Kδ.” for “PI3Kδ. Potential inhibitors were made up in DMSO and then diluted in the assay to give a final concentration of not exceeding 1% (v/v) DMSO.”

For assay [3], the target named is recombinant human PI3Kδ (6-His(p110-p85α)) (Homo sapiens (Human), UniProt O00329). The assay can be described thus: Enzymatic activity assay for recombinant human PI3Kδ (ADP-Glo). As to conditions: 0.6 nM PI3Kδ, 20 μM ATP, 80 μM DiC8-PIP2, ADP-Glo. Here is the method:
as §1
as §2, with “PI3Kδ.” for “PI3Kδ. Potential inhibitors were made up in DMSO and then diluted in the assay to give a final concentration of not exceeding 1% (v/v) DMSO.”

For assay [4], the target named is recombinant human PI3Kα (6-His(p110-p85α)) (Homo sapiens (Human), UniProt P42336). The assay can be described thus: Enzymatic activity assay for recombinant human PI3Kα (ADP-Glo). As to conditions: 1.2 nM PI3Kα, 20 μM ATP, 80 μM DiC8-PIP2, ADP-Glo. The method, then: as §1, §2
recombinant human PI3Kα (6-His(p110-p85α)), sequence (P42336 whole entry): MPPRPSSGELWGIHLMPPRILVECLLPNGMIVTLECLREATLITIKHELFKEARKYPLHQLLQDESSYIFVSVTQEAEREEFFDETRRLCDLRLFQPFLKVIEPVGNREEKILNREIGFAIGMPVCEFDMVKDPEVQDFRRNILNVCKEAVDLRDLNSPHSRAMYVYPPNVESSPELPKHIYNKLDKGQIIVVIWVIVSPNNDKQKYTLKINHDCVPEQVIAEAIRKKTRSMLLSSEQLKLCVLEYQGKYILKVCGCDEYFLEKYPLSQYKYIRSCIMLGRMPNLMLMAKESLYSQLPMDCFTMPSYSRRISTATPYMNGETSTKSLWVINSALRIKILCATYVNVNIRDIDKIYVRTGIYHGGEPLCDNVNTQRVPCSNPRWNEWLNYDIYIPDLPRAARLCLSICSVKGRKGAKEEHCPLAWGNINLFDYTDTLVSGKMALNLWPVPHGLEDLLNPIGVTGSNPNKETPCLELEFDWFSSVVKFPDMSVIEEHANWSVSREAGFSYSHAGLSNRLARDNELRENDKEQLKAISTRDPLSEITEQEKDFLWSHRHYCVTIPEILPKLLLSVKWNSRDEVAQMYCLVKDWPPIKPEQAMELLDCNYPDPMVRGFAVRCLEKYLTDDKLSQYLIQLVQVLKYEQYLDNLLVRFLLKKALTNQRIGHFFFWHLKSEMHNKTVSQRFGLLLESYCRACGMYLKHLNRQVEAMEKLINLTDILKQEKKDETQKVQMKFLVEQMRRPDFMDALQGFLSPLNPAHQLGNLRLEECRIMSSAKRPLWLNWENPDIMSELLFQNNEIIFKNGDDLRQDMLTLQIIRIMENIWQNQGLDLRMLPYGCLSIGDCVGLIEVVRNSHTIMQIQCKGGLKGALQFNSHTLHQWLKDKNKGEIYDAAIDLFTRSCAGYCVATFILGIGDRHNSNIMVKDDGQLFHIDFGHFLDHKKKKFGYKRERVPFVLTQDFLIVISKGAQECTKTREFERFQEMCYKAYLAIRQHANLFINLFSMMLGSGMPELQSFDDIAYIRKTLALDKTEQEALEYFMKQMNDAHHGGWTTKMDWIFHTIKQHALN
recombinant human PI3Kα (6-His(p110-p85α)), sequence (P27986 whole entry partner): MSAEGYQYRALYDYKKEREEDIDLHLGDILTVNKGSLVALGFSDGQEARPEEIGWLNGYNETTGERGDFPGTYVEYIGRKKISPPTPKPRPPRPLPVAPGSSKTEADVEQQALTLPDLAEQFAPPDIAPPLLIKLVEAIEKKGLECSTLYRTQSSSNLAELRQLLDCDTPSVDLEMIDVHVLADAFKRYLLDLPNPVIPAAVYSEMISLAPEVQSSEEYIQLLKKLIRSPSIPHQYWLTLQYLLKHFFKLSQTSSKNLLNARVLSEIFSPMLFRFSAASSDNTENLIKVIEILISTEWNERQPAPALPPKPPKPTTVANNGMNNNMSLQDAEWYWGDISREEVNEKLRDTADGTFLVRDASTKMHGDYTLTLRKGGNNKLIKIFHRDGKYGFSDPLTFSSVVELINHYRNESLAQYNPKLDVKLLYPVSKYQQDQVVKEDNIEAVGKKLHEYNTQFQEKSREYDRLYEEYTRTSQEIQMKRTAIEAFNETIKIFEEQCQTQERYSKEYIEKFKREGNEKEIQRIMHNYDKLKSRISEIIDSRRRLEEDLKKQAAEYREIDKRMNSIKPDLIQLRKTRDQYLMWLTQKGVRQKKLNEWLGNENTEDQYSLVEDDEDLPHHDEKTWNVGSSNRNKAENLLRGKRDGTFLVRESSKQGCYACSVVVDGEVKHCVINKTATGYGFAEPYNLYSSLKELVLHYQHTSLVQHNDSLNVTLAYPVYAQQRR

recombinant human PI3Kβ (6-His(p110-p85α)), sequence (P42338 whole entry, the tested form may be a part): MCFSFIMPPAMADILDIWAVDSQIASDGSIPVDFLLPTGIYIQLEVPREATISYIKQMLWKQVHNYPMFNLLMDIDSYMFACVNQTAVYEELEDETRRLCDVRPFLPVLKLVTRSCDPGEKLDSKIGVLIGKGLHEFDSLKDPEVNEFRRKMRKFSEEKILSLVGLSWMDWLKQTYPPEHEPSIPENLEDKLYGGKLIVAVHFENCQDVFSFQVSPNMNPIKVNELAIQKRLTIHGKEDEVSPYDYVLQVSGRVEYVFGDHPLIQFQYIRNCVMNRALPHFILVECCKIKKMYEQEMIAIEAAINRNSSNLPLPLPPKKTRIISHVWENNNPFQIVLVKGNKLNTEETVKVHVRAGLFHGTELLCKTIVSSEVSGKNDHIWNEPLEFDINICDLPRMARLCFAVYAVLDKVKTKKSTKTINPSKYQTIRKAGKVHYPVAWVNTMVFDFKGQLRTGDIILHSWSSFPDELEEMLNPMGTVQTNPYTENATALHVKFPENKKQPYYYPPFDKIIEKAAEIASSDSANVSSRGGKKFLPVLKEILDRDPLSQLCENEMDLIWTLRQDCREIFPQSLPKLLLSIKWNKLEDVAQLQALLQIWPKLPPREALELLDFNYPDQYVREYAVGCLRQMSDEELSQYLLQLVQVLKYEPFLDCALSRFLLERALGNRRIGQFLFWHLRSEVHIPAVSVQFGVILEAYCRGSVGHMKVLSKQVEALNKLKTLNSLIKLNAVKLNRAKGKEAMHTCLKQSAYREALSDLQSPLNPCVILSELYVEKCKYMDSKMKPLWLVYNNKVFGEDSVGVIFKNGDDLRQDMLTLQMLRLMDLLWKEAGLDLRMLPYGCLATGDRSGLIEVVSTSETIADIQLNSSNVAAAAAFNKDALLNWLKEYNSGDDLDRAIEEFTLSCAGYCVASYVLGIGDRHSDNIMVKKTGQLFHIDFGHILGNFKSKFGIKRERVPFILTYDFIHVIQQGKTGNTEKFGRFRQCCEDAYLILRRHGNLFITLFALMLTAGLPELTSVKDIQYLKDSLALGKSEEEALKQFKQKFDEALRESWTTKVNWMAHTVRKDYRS
recombinant human PI3Kβ (6-His(p110-p85α)), sequence (P27986 whole entry partner, the tested form may be a part): as the sequence (P27986 whole entry partner) above
recombinant human PI3Kδ (6-His(p110-p85α)), sequence (O00329 whole entry): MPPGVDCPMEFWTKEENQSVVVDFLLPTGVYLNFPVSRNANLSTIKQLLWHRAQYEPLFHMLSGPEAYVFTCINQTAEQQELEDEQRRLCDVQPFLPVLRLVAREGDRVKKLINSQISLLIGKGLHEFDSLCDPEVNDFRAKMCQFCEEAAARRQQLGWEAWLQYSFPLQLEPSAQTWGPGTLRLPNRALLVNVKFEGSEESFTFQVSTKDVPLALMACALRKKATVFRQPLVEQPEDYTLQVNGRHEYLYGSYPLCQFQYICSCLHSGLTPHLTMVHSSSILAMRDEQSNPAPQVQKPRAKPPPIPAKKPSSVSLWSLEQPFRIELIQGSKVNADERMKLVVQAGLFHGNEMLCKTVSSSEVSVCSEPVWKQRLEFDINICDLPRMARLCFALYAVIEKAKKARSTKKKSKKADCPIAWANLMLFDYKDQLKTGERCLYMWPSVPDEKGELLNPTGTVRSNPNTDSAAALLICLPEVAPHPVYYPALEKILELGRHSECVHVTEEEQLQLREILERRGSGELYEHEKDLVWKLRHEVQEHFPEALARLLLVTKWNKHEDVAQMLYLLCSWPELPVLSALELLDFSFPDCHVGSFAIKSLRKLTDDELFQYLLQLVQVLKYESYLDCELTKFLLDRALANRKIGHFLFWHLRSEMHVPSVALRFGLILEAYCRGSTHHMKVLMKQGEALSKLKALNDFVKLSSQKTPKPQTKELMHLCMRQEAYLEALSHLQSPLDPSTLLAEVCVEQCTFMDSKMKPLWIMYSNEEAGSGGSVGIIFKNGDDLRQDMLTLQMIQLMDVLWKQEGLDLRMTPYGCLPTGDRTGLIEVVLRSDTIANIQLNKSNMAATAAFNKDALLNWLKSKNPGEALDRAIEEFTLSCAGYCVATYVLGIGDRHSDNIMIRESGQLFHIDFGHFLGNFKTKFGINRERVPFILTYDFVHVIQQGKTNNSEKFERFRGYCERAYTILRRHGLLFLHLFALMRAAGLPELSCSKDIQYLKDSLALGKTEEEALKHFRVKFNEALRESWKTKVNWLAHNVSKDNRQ
recombinant human PI3Kδ (6-His(p110-p85α)), sequence (P27986 whole entry partner): as the sequence (P27986 whole entry partner) above
recombinant human PI3Kγ ((aa144-1102)-6His), sequence (P48736 144-1102): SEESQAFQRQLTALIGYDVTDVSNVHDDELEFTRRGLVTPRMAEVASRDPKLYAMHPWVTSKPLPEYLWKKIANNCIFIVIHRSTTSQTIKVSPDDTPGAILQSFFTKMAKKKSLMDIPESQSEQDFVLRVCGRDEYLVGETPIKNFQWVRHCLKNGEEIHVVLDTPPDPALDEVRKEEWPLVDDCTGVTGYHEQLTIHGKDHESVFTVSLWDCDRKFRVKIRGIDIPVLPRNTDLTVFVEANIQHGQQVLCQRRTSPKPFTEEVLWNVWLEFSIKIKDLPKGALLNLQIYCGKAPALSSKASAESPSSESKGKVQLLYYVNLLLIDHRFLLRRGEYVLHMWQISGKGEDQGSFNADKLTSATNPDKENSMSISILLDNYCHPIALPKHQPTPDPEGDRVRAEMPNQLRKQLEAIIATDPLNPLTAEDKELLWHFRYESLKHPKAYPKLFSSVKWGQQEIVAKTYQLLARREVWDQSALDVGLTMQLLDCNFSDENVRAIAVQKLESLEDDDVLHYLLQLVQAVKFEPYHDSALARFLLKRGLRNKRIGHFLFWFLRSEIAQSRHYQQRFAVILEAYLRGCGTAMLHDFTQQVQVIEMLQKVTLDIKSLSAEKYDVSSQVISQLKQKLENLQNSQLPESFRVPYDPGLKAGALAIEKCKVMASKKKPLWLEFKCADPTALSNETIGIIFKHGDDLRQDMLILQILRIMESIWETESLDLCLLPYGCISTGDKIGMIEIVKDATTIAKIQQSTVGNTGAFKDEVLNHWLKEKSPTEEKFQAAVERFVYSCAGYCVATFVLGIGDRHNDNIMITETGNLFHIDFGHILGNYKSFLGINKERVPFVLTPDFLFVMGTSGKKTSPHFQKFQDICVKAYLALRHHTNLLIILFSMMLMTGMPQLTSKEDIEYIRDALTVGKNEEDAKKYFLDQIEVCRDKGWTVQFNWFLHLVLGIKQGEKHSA

For `Cc1nc(Nc2cccc(N3CCOCC3=O)n2)sc1-c1cc2c(c(S(=O)(=O)NC(C)C)c1)C(=O)N([C@@H](C)C(F)(F)F)C2` [Example 28, 6-(4-Methyl-2-{[6-(3-oxomorpholin-4-yl)pyridin-2-yl]amino}-1,3-thiazol-5-yl)-3-oxo-N-(propan-2-yl)-2-[(2S)-1,1,1-trifluoropropan-2-yl]-2,3-dihydro-1H-isoindole-4-sulfonamide], the IC50 is 798 nM in assay [1], 2.6 nM in assay [2], 1.2 nM in assay [3] and 318 nM in assay [4].
As to `Cc1nc(Nc2cccc(N3CCCOC3=O)n2)sc1-c1cc2c(c(S(=O)(=O)NC(C)C)c1)C(=O)N([C@@H](C)C(F)(F)F)C2` [Example 29, 6-(4-Methyl-2-{[6-(2-oxo-1,3-oxazinan-3-yl)pyridin-2-yl]amino}-1,3-thiazol-5-yl)-3-oxo-N-(propan-2-yl)-2-[(2S)-1,1,1-trifluoropropan-2-yl]-2,3-dihydro-1H-isoindole-4-sulfonamide], the IC50 in assay [1] came to 62 nM; in assay [2] it was 2.2 nM; in assay [3] it was 0.5 nM; in assay [4] it was 47 nM.
The matching figures for `Cc1nc(Nc2cccc(N3CCNC3=O)n2)sc1-c1cc2c(c(S(=O)(=O)NC(C)C)c1)C(=O)N([C@@H](C)C(F)(F)F)C2` [Example 30, 6-(4-Methyl-2-{[6-(2-oxoimidazolidin-1-yl)pyridin-2-yl]amino}-1,3-thiazol-5-yl)-3-oxo-N-(propan-2-yl)-2-[(2S)-1,1,1-trifluoropropan-2-yl]-2,3-dihydro-1H-isoindole-4-sulfonamide]: 722 nM, 1.4 nM, 0.5 nM and 74 nM.
On the same counts, the results for `Cc1nc(Nc2cccc(N3CCCC3=O)n2)sc1-c1cc2c(c(S(=O)(=O)NC3COC3)c1)C(=O)N([C@@H](C)C1CC1)C2` [Example 32, 2-[(1S)-1-Cyclopropylethyl]-6-(4-methyl-2-{[6-(2-oxopyrrolidin-1-yl)pyridin-2-yl]amino}-1,3-thiazol-5-yl)-N-(oxetan-3-yl)-3-oxo-2,3-dihydro-1H-isoindole-4-sulfonamide] are 2060 nM, 1.3 nM, 0.7 nM and 140 nM.
Consider `Cc1nc(Nc2cccc(N3CCOC3=O)n2)sc1-c1cc2c(c(S(=O)(=O)NC3COC3)c1)C(=O)N([C@@H](C)C1CC1)C2` [Example 33, 2-[(1S)-1-Cyclopropylethyl]-6-(4-methyl-2-{[6-(2-oxo-1,3-oxazolidin-3-yl)pyridin-2-yl]amino}-1,3-thiazol-5-yl)-N-(oxetan-3-yl)-3-oxo-2,3-dihydro-1H-isoindole-4-sulfonamide], for which the IC50 amounted to 3420 nM in assay [1], 1.2 nM in assay [2], 1.4 nM in assay [3] and 472 nM in assay [4].
On to `Cc1nc(Nc2cccc(N3CCNC3=O)n2)sc1-c1cc2c(c(S(=O)(=O)NC3COC3)c1)C(=O)N([C@@H](C)C1CC1)C2` [Example 34, 2-[(1S)-1-Cyclopropylethyl]-6-(4-methyl-2-{[6-(2-oxoimidazolidin-1-yl)pyridin-2-yl]amino}-1,3-thiazol-5-yl)-N-(oxetan-3-yl)-3-oxo-2,3-dihydro-1H-isoindole-4-sulfonamide], for which the IC50 in assay [1] worked out at 927 nM; in assay [2], 0.8 nM; in assay [3], 0.5 nM; in assay [4], 30 nM.
For the compound `Cc1nc(Nc2cccc(N3CCCOC3=O)n2)sc1-c1cc2c(c(S(=O)(=O)NC3COC3)c1)C(=O)N([C@@H](C)C1CC1)C2` [Example 35, 2-[(1S)-1-Cyclopropylethyl]-6-(4-methyl-2-{[6-(2-oxo-1,3-oxazinan-3-yl)pyridin-2-yl]amino}-1,3-thiazol-5-yl)-N-(oxetan-3-yl)-3-oxo-2,3-dihydro-1H-isoindole-4-sulfonamide], the IC50 came to 484 nM in assay [1], 1 nM in assay [2], 0.9 nM in assay [3] and 53 nM in assay [4].
With `Cc1nc(Nc2cccc(N3CCCCC3=O)n2)sc1-c1cc2c(c(S(=O)(=O)NC3COC3)c1)C(=O)N([C@@H](C)C(F)(F)F)C2` [Example 36, 6-(4-Methyl-2-{[6-(2-oxopiperidin-1-yl)pyridin-2-yl]amino}-1,3-thiazol-5-yl)-N-(oxetan-3-yl)-3-oxo-2-[(2S)-1,1,1-trifluoropropan-2-yl]-2,3-dihydro-1H-isoindole-4-sulfonamide], the IC50 in assay [1] came to 113 nM; in assay [2], 1.2 nM; in assay [3] it was 1 nM; in assay [4] it was 50 nM.
On the same counts, the results for `Cc1nc(Nc2cccc(N3CCCC3=O)n2)sc1-c1cc2c(c(S(=O)(=O)NC3COC3)c1)C(=O)N([C@@H](C)C(F)(F)F)C2` [Example 37, 6-(4-Methyl-2-{[6-(2-oxopyrrolidin-1-yl)pyridin-2-yl]amino}-1,3-thiazol-5-yl)-N-(oxetan-3-yl)-3-oxo-2-[(2S)-1,1,1-trifluoropropan-2-yl]-2,3-dihydro-1H-isoindole-4-sulfonamide] are 395 nM, 1.1 nM, 0.6 nM and 67 nM.
Take `CNS(=O)(=O)c1cc(-c2sc(Nc3cccc(N4CCCOC4=O)n3)nc2C)cc2c1C(=O)N(C(C)(C)C)C2` [Example 38, 2-tert-Butyl-N-methyl-6-(4-methyl-2-{[6-(2-oxo-1,3-oxazinan-3-yl)pyridin-2-yl]amino}-1,3-thiazol-5-yl)-3-oxo-2,3-dihydro-1H-isoindole-4-sulfonamide]: the IC50 in assay [1] is 65 nM; in assay [2] it was 0.8 nM; in assay [3], 1.8 nM; in assay [4] it was 84 nM.
Turning to `CNS(=O)(=O)c1cc(-c2sc(Nc3cccc(N4CCOCC4=O)n3)nc2C)cc2c1C(=O)N([C@@H](C)C(C)(C)C)C2` [Example 39, 2-[(2S)-3,3-Dimethylbutan-2-yl]-N-methyl-6-(4-methyl-2-{[6-(3-oxomorpholin-4-yl)pyridin-2-yl]amino}-1,3-thiazol-5-yl)-3-oxo-2,3-dihydro-1H-isoindole-4-sulfonamide], the IC50 is 10400 nM in assay [1], 1.4 nM in assay [2], 8.9 nM in assay [3] and 485 nM in assay [4].
On to `Cc1nc(Nc2cccc(N3CCNCC3=O)n2)sc1-c1cc2c(c(S(C)(=O)=O)c1)C(=O)N([C@@H](C)C1CC1)C2` [Example 40, 2-[(1S)-1-Cyclopropylethyl]-5-(4-methyl-2-{[6-(2-oxopiperazin-1-yl)pyridin-2-yl]amino}-1,3-thiazol-5-yl)-7-(methylsulfonyl)-2,3-dihydro-1H-isoindol-1-one], for which the IC50 was found to be 729 nM in assay [1], 1.6 nM in assay [2], 1.7 nM in assay [3] and 104 nM in assay [4].
Consider `CNS(=O)(=O)c1cc(-c2sc(Nc3cccc(N4CCNCC4=O)n3)nc2C)cc2c1C(=O)N([C@@H](C)C1CC1)C2` [Example 41, 2-[(1S)-1-Cyclopropylethyl]-N-methyl-6-(4-methyl-2-{[6-(2-oxopiperazin-1-yl)pyridin-2-yl]amino}-1,3-thiazol-5-yl)-3-oxo-2,3-dihydro-1H-isoindole-4-sulfonamide], for which the half-maximal inhibitory concentration (IC50) in assay [1] amounted to 298 nM; in assay [2], 1.3 nM; in assay [3], 0.9 nM; in assay [4], 72 nM.
The matching figures for `CNS(=O)(=O)c1cc(-c2sc(Nc3cccc(N4C[C@H](C)NCC4=O)n3)nc2C)cc2c1C(=O)N([C@@H](C)C1CC1)C2` [Example 42, 2-[(1S)-1-Cyclopropylethyl]-N-methyl-6-[4-methyl-2-({6-[(5S)-5-methyl-2-oxopiperazin-1-yl]pyridin-2-yl}amino)-1,3-thiazol-5-yl]-3-oxo-2,3-dihydro-1H-isoindole-4-sulfonamide]: 286 nM, 1 nM, 0.8 nM and 69 nM.
